{"source": "patent US9221756B2", "about": "“Pyrrole derivatives” (priority 2011, dated 2015)"}
{"target": "pneumolysin (Streptococcus pneumoniae serotype 2, UniProt Q04IN8)", "sequence (Q04IN8 whole entry)": "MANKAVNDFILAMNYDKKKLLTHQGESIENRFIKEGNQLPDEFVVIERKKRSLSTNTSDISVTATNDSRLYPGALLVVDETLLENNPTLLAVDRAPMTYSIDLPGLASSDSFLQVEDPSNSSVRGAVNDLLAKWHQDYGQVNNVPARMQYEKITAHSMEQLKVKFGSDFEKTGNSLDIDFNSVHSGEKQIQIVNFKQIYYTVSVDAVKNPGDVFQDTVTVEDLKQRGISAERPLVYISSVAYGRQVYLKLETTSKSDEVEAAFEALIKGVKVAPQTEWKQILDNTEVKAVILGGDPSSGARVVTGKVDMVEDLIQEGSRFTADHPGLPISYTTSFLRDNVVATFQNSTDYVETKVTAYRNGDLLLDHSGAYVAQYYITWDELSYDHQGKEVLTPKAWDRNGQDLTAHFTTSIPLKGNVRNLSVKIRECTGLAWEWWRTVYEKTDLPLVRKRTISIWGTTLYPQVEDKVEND", "assay": "Inhibition of the haemolytic activity of pneumolysin (sheep erythrocytes)", "format": "cell-based", "details": "IC50, inhibition of pneumolysin-induced haemolysis of sheep erythrocytes; class symbols of Table 1", "units": {"IC50": "µM"}}
{"smiles": "CCN(CC)C(=O)c1c(O)c(O)c(C(=O)N(CC)CC)n1-c1ccc(F)cc1", "note": "[UL1-001, N^2,N^2,N^5,N^5-tetraethyl-1-(4-fluorophenyl)-3,4-dihydroxy-1H-pyrrole-2,5-dicarboxamide]", "IC50": "< 10"}
{"smiles": "CCOc1ccc(-n2c(C(=O)N(CC)CC)c(O)c(O)c2C(=O)N(CC)CC)cc1", "note": "[UL1-002, 1-(4-ethoxyphenyl)-N^2,N^2,N^5,N^5-tetraethyl-3,4-dihydroxy-1H-pyrrole-2,5-dicarboxamide]", "IC50": "< 10"}
{"smiles": "CCN(CC)C(=O)c1c(O)c(O)c(C(=O)N(CC)CC)n1-c1ccc(OC)cc1", "note": "[UL1-003, N^2,N^2,N^5,N^5-tetraethyl-3,4-dihydroxy-1-(4-methoxyphenyl)-1H-pyrrole-2,5-dicarboxamide]", "IC50": "< 10"}
{"smiles": "COc1ccc(-n2c(C(=O)N3CCOCC3)c(O)c(O)c2C(=O)N2CCOCC2)cc1", "note": "[UL1-004, (3,4-dihydroxy-1-(4-methoxyphenyl)-1H-pyrrole-2,5-diyl)bis(morpholinomethanone)]", "IC50": "< 10"}
{"smiles": "COc1ccc(-n2c(C(=O)N(C)C)c(O)c(O)c2C(=O)N(C)C)cc1", "note": "[UL1-005, 3,4-dihydroxy-1-(4-methoxyphenyl)-N^2,N^2,N^5,N^5-tetramethyl-1H-pyrrole-2,5-dicarboxamide]", "IC50": "< 10"}
{"smiles": "O=C(c1c(O)c(O)c(C(=O)N2CCOCC2)n1-c1ccc(F)cc1)N1CCOCC1", "note": "[UL1-006, (1-(4-fluorophenyl)-3,4-dihydroxy-1H-pyrrole-2,5-diyl)bis(morpholinomethanone)]", "IC50": "< 10"}
{"smiles": "CN(C(=O)c1c(O)c(O)c(C(=O)N(C)c2ccccc2)n1-c1ccc(F)cc1)c1ccccc1", "note": "[UL1-007, 1-(4-fluorophenyl)-3,4-dihydroxy-N^2,N^5-dimethyl-N^2,N^5-diphenyl-1H-pyrrole-2,5-dicarboxamide]", "IC50": "20 to 60"}
{"smiles": "CC(C)(C)OC(=O)N1CCN(C(=O)c2c(O)c(O)c(C(=O)N3CCN(C(=O)OC(C)(C)C)CC3)n2-c2ccc(F)cc2)CC1", "note": "[UL1-009, di-tert-butyl 4,4′-(1-(4-fluorophenyl)-3,4-dihydroxy-1H-pyrrole-2,5-dicarbonyl)bis(piperazine-1-carboxylate)]", "IC50": "< 10"}
{"smiles": "CC(=O)N1CCN(C(=O)c2c(O)c(O)c(C(=O)N3CCN(C(C)=O)CC3)n2-c2ccc(F)cc2)CC1", "note": "[UL1-010, 1,1′-(4,4′-(1-(4-fluorophenyl)-3,4-dihydroxy-1H-pyrrole-2,5-dicarbonyl)bis(piperazine-4,1-diyl))diethanone]", "IC50": "< 10"}
{"smiles": "O=C(c1c(O)c(O)c(C(=O)N2CCCCC2)n1-c1ccc(F)cc1)N1CCCCC1", "note": "[UL1-011, (1-(4-fluorophenyl)-3,4-dihydroxy-1H-pyrrole-2,5-diyl)bis(piperidin-1-ylmethanone)]", "IC50": "< 10"}
{"smiles": "CC(C)N(C)C(=O)c1c(O)c(O)c(C(=O)N(C)C(C)C)n1-c1ccc(F)cc1", "note": "[UL1-013, 1-(4-fluorophenyl)-3,4-dihydroxy-N^2,N^5-diisopropyl-N^2,N^5-dimethyl-1H-pyrrole-2,5-dicarboxamide]", "IC50": "< 10"}
{"smiles": "CN(Cc1ccccc1)C(=O)c1c(O)c(O)c(C(=O)N(C)Cc2ccccc2)n1-c1ccc(F)cc1", "note": "[UL1-014, N^2,N^5-dibenzyl-1-(4-fluorophenyl)-3,4-dihydroxy-N^2,N^5-dimethyl-1H-pyrrole-2,5-dicarboxamide]", "IC50": "< 10"}
{"smiles": "COc1ccc(-n2c(C(=O)N3CCN(C(=O)OC(C)(C)C)CC3)c(O)c(O)c2C(=O)N2CCN(C(=O)OC(C)(C)C)CC2)cc1", "note": "[UL1-015, di-tert-butyl 4,4′-(3,4-dihydroxy-1-(4-methoxyphenyl)-1H-pyrrole-2,5-dicarbonyl)bis(piperazine-1-carboxylate)]", "IC50": "< 10"}
{"smiles": "COc1ccc(-n2c(C(=O)N3CCNCC3)c(O)c(O)c2C(=O)N2CCNCC2)cc1", "note": "[UL1-016, (3,4-dihydroxy-1-(4-methoxyphenyl)-1H-pyrrole-2,5-diyl)bis(piperazin-1-ylmethanone)]", "IC50": "< 10"}
{"smiles": "CC(C)N(C(=O)c1c(O)c(O)c(C(=O)N(C(C)C)C(C)C)n1-c1ccc(F)cc1)C(C)C", "note": "[UL1-017, 1-(4-fluorophenyl)-3,4-dihydroxy-N^2,N^2,N^5,N^5-tetraisopropyl-1H-pyrrole-2,5-dicarboxamide]", "IC50": "< 10"}
{"smiles": "COc1ccc(-n2c(C(=O)N3CCCCC3)c(O)c(O)c2C(=O)N2CCCCC2)cc1", "note": "[UL1-018, (3,4-dihydroxy-1-(4-methoxyphenyl)-1H-pyrrole-2,5-diyl)bis(piperidin-1-ylmethanone)]", "IC50": "< 10"}
{"smiles": "COc1ccccc1-n1c(C(=O)N(C)C)c(O)c(O)c1C(=O)N(C)C", "note": "[UL1-019, 3,4-dihydroxy-1-(2-methoxyphenyl)-N^2,N^2,N^5,N^5-tetramethyl-1H-pyrrole-2,5-dicarboxamide]", "IC50": "< 10"}
{"smiles": "COc1ccccc1-n1c(C(=O)N2CCOCC2)c(O)c(O)c1C(=O)N1CCOCC1", "note": "[UL1-020, (3,4-dihydroxy-1-(2-methoxyphenyl)-1H-pyrrole-2,5-diyl)bis(morpholinomethanone)]", "IC50": "< 10"}
{"smiles": "CCOc1ccc(-n2c(C(=O)N(C)C)c(O)c(O)c2C(=O)N(C)C)cc1", "note": "[UL1-021, 1-(4-ethoxyphenyl)-3,4-dihydroxy-N^2,N^2,N^5,N^5-tetramethyl-1H-pyrrole-2,5-dicarboxamide]", "IC50": "< 10"}
{"smiles": "CCOc1ccc(-n2c(C(=O)N3CCOCC3)c(O)c(O)c2C(=O)N2CCOCC2)cc1", "note": "[UL1-022, (1-(4-ethoxyphenyl)-3,4-dihydroxy-1H-pyrrole-2,5-diyl)bis(morpholinomethanone)]", "IC50": "< 10"}
{"smiles": "O=C(c1c(O)c(O)c(C(=O)N2CCOCC2)n1-c1ccc(C(F)(F)F)cc1)N1CCOCC1", "note": "[UL1-023, (3,4-dihydroxy-1-(4-(trifluoromethyl)phenyl)-1H-pyrrole-2,5-diyl)bis(morpholinomethanone)]", "IC50": "< 10"}
{"smiles": "CCNC(=O)c1c(O)c(O)c(C(=O)N(C)C)n1-c1ccc(OC)cc1", "note": "[UL1-024, N^2-ethyl-3,4-dihydroxy-1-(4-methoxyphenyl)-N^5,N^5-dimethyl-1H-pyrrole-2,5-dicarboxamide]", "IC50": "< 10"}
{"smiles": "COc1ccc(-n2c(C(=O)N(C)C)c(O)c(O)c2C(=O)N2CCCCC2)cc1", "note": "[UL1-025, 3,4-dihydroxy-1-(4-methoxyphenyl)-N,N-dimethyl-5-(piperidine-1-carbonyl)-1H-pyrrole-2-carboxamide]", "IC50": "< 10"}
{"smiles": "COc1ccc(-n2c(C(=O)N(C)C)c(O)c(O)c2C(=O)N2CCOCC2)cc1", "note": "[UL1-026, 3,4-dihydroxy-1-(4-methoxyphenyl)-N,N-dimethyl-5-(morpholine-4-carbonyl)-1H-pyrrole-2-carboxamide]", "IC50": "< 10"}
{"smiles": "COc1ccc(-n2c(C(=O)N(C)C)c(O)c(O)c2C(=O)N2CCN(C)CC2)cc1", "note": "[UL1-027, 3,4-dihydroxy-1-(4-methoxyphenyl)-N,N-dimethyl-5-(4-methylpiperazine-1-carbonyl)-1H-pyrrole-2-carboxamide]", "IC50": "< 10"}
{"smiles": "CN(C)C(=O)c1c(O)c(O)c(C(=O)N(C)C)n1-c1ccc(C(F)(F)F)cc1", "note": "[UL1-028, 3,4-dihydroxy-N^2,N^2,N^5,N^5-tetramethyl-1-(4-(trifluoromethyl)phenyl)-1H-pyrrole-2,5-dicarboxamide]", "IC50": "< 10"}
{"smiles": "CN(C)C(=O)c1ccc(-n2c(C(=O)N(C)C)c(O)c(O)c2C(=O)N(C)C)cc1", "note": "[UL1-029, 1-(4-(dimethylcarbamoyl)phenyl)-3,4-dihydroxy-N^2,N^2,N^5,N^5-tetramethyl-1H-pyrrole-2,5-dicarboxamide]", "IC50": "< 10"}
{"smiles": "COc1ccc(-n2c(C(=O)N(C)C)c(O)c(O)c2S(=O)(=O)NC(=O)OC(C)(C)C)cc1", "note": "[UL1-030, tert-butyl (5-(dimethylcarbamoyl)-3,4-dihydroxy-1-(4-methoxyphenyl)-1H-pyrrol-2-yl)sulfonylcarbamate]", "IC50": "20 to 60"}
{"smiles": "COc1ccc(-n2c(C#N)c(O)c(O)c2C(=O)N(C)C)cc1", "note": "[UL1-031, 5-cyano-3,4-dihydroxy-1-(4-methoxyphenyl)-N,N-dimethyl-1H-pyrrole-2-carboxamide]", "IC50": "< 10"}
{"smiles": "CCOC(=O)c1c(O)c(O)c(C(=O)N(C)C)n1-c1ccc(F)cc1", "note": "[UL1-032, ethyl 5-(dimethylcarbamoyl)-1-(4-fluorophenyl)-3,4-dihydroxy-1H-pyrrole-2-carboxylate]", "IC50": "< 10"}
{"smiles": "COc1ccc(-n2c(C(=O)N3CCN(C(C)=O)CC3)c(O)c(O)c2C(=O)N2CCN(C(C)=O)CC2)cc1", "note": "[UL1-033, 1,1′-(4,4′-(3,4-dihydroxy-1-(4-methoxyphenyl)-1H-pyrrole-2,5-dicarbonyl)bis(piperazine-4,1-diyl))diethanone]", "IC50": "< 10"}
{"smiles": "COc1ccc(-n2c(C#N)c(O)c(O)c2C#N)cc1", "note": "[UL1-034, 3,4-dihydroxy-1-(4-methoxyphenyl)-1H-pyrrole-2,5-dicarbonitrile]", "IC50": "20 to 60"}
{"smiles": "COc1ccc(-n2c(C(=O)OC(C)C)c(O)c(O)c2C(=O)N(C)C)cc1", "note": "[UL1-035, isopropyl 5-(dimethylcarbamoyl)-3,4-dihydroxy-1-(4-methoxyphenyl)-1H-pyrrole-2-carboxylate]", "IC50": "< 10"}
{"smiles": "COc1ccc(-n2c(C(=O)OC(C)(C)C)c(O)c(O)c2C(=O)N(C)C)cc1", "note": "[UL1-036, tert-butyl 5-(dimethylcarbamoyl)-3,4-dihydroxy-1-(4-methoxyphenyl)-1H-pyrrole-2-carboxylate]", "IC50": "< 10"}
{"smiles": "CCOC(=O)c1c(O)c(O)c(C(=O)N2CCN(C)CC2)n1-c1ccc(OC)cc1", "note": "[UL1-037, ethyl 3,4-dihydroxy-1-(4-methoxyphenyl)-5-(4-methylpiperazine-1-carbonyl)-1H-pyrrole-2-carboxylate]", "IC50": "< 10"}
{"smiles": "CCCCN(CCCC)C(=O)c1c(O)c(O)c(C(=O)OCC)n1-c1ccc(OC)cc1", "note": "[UL1-038, ethyl 5-(dibutylcarbamoyl)-3,4-dihydroxy-1-(4-methoxyphenyl)-1H-pyrrole-2-carboxylate]", "IC50": "< 10"}
{"smiles": "CCOC(=O)c1c(O)c(O)c(C#N)n1-c1ccc(F)cc1", "note": "[UL1-039, ethyl 5-cyano-1-(4-fluorophenyl)-3,4-dihydroxy-1H-pyrrole-2-carboxylate]", "IC50": "20 to 60"}
{"smiles": "CCOC(=O)c1c(O)c(O)c(C(=O)N2CCOCC2)n1-c1ccc(OC)cc1", "note": "[UL1-040, ethyl 3,4-dihydroxy-1-(4-methoxyphenyl)-5-(morpholine-4-carbonyl)-1H-pyrrole-2-carboxylate]", "IC50": "< 10"}
{"target": "pneumolysin (Streptococcus pneumoniae serotype 2, UniProt Q04IN8)", "assay": "Inhibition of the haemolytic activity of pneumolysin (sheep erythrocytes)", "format": "cell-based", "details": "IC50, inhibition of pneumolysin-induced haemolysis of sheep erythrocytes; specific values", "units": {"IC50": "µM"}}
{"smiles": "COc1ccc(-n2c(C(=O)N3CCOCC3)c(O)c(O)c2C(=O)N2CCOCC2)cc1", "note": "[UL1-004, (3,4-dihydroxy-1-(4-methoxyphenyl)-1H-pyrrole-2,5-diyl)bis(morpholinomethanone)]", "IC50": 0.17}
{"smiles": "COc1ccc(-n2c(C(=O)N(C)C)c(O)c(O)c2C(=O)N(C)C)cc1", "note": "[UL1-005, 3,4-dihydroxy-1-(4-methoxyphenyl)-N^2,N^2,N^5,N^5-tetramethyl-1H-pyrrole-2,5-dicarboxamide]", "IC50": 0.15}
{"smiles": "CCNC(=O)c1c(O)c(O)c(C(=O)N(C)C)n1-c1ccc(OC)cc1", "note": "[UL1-024, N^2-ethyl-3,4-dihydroxy-1-(4-methoxyphenyl)-N^5,N^5-dimethyl-1H-pyrrole-2,5-dicarboxamide]", "IC50": 0.182}
{"smiles": "CN(C)C(=O)c1c(O)c(O)c(C(=O)N(C)C)n1-c1ccc(C(F)(F)F)cc1", "note": "[UL1-028, 3,4-dihydroxy-N^2,N^2,N^5,N^5-tetramethyl-1-(4-(trifluoromethyl)phenyl)-1H-pyrrole-2,5-dicarboxamide]", "IC50": 0.068}
{"smiles": "COc1ccc(-n2c(C(=O)OC(C)C)c(O)c(O)c2C(=O)N(C)C)cc1", "note": "[UL1-035, isopropyl 5-(dimethylcarbamoyl)-3,4-dihydroxy-1-(4-methoxyphenyl)-1H-pyrrole-2-carboxylate]", "IC50": 0.15}
